Results published in patent publication US20240279278A1, “NMU RECEPTOR 2 AGONISTS” (Boehringer Ingelheim International GmbH, priority 2023, published 2024).
Residues, ends and D or L forms follow the SMILES beside them.

Experiments:
[1] = target: T1, human NMUR1 receptor (Homo sapiens, UniProt Q9HB89); assay: Radioligand binding competition assay (RLB), human NMUR1 receptor binding (SPA, [125I]-Neuromedin U-25); settings: CHO-K1 hNMUR1 cell membranes, 4 hours at RT
T1 construct: host or cells: CHO-K1
T1 sequence (Q9HB89 24-426 limits assumed): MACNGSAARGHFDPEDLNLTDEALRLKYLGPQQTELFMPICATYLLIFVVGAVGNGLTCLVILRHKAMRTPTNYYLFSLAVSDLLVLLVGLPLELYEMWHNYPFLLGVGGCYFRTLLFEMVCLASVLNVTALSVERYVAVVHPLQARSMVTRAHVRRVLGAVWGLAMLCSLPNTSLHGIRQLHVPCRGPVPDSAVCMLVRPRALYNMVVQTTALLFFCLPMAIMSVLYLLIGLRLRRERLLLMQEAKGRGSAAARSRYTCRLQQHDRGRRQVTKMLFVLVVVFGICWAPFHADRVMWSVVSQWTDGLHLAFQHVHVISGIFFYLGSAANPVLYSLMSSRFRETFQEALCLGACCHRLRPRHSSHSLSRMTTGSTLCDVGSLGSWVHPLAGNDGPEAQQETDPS
Description: Example 2: Radioligand Binding Competition Assay (RLB) Human NMUR1 Receptor Binding 1) Membranes The test is based on membranes prepared from a human NMUR1/Apoaequorin Stable Cell Line (Creative Biogene, Cat. No. CSC-RG1308). Cell Line Description: CHO-NMUR1 cell line is clonally-derived from a CHO-K1 cell line, which has been transfected with a bicistronic expression plasmid containing the sequence coding for the human neuromedin U receptor 1 (NM_006056.4, 180 to 1391). Mosaic-ID: CL16550614 Membrane preparation: Cells were broken by nitrogen cavitation (900 psi, 1 hour). Intact cells were removed by centrifugation (400 rcf, 10 minutes, 4° C.) before the crude membrane fraction was collected by ultracentrifugation (20.000 rcf, 1 hour, 4° C.). 2) Human NMUR1 Receptor Binding Assay (Radioligand: [125l]-Neuromedin U-25) In this Scintillation Proximity Assay (SPA) design, the membranes immobilize directly to the PVT-WGA-PEI type A beads (polyethyleneimine treated polyvinyltoluene beads coupled to wheatgerm agglutinin, Perkin Elmer) via interactions of wheat germ agglutinate and glycosylated membrane structures. Thereby the radioactively la-belled ligand, bound to NMUR1 receptors on the membrane, comes in close proximity to the solid scintillator of the PVT bead. Radioactive human neuromedin U-25 then stimulates the scintillant to emit light. In contrast, radioligand not bound to the receptor is too distant from the bead to elicit a signal. For the Scintillation Proximity Assay the CHO-K1 hNMUR1 cell membranes and SPA-beads are diluted to concentrations, which assure a robust signal to background ratio. The SPA incubation buffer consists of 25 mM Hepes (pH=7.0), 5 mM MgCl2, 1 mM CaCl2, 10 ug/mL Saponine and 0.1% bovine serum albumin and is used for all dilutions. Final assay setup in 96-well plate: 20 μL of 10× test compound dilutions+40 μL of 5× [125l]-Neuromedin U-25 (1× approx. 30 pM; 2000 μCi/mmol (μCi=microcurie))+60 μL membrane dilution (approx. 1.0 μg membrane protein)+80 μL SPA bead dilution (250 μg). The assay is incubated for 4 hours at RT, including controls for specific binding where no displacer is added and non-specific binding by adding unlabeled hNMU-25 at 100 nM. Bound radioactivity is determined by scintillation counting (MicroBeta Trilux 1450, Perkin Elmer, detection of 125I decay). […] The system assumes one binding site with no relevant radioligand depletion (<10%) and that the binding is reversible and at equilibrium. [formula] [formula]

[2] = target: human NMUR2 receptor (Homo sapiens, UniProt Q9GZQ4); assay: IP1 Gq HTRF assay, activation of human NMUR2 in human plasma; assay type: cell-based; parameters: expressed in transfected cells; host or cells: CHO-K1; settings: CHO-K1 cells expressing human NMUR2, 100% human plasma; read-out: EC50 (hNMUR2) human plasma
Procedure, shortened: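 EC50 obtained via 4-parameter sigmoidal regression of HTRF IP-One signal (665 nm/620 nm), which falls as intracellular IP1 rises. Stimulation: 1 h, 37° C, peptides in human plasma plus 50 mM LiCl, 1% DMSO final, on NMUR2-expressing CHO-K1 cells, 8 concentrations.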

human NMUR2 receptor, sequence (Q9GZQ4 whole entry): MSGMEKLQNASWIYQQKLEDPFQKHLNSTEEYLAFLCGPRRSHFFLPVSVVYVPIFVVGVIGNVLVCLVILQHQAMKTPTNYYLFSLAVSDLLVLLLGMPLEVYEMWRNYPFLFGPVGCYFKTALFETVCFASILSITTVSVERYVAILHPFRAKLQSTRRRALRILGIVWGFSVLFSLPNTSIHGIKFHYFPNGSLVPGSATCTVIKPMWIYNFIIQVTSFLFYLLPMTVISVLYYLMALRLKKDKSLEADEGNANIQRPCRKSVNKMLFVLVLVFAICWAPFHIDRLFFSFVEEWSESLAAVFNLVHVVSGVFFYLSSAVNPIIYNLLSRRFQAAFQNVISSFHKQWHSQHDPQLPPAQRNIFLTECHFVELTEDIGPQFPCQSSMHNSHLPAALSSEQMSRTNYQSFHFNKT

| SMILES | Ki [1] [nM] | EC50 [2] [nM] |
| --- | --- | --- |
| CCCC[C@H](NC(=O)[C@H](CC(C)C)N(C)C(=O)[C@H](Cc1ccccc1)NC(=O)[C@H](Cc1ccc(O)cc1)NC(=O)CN1CCN(CCNC(=O)CN(C)C(=O)CN(C)C(=O)CN(C)C(=O)CN(C)C(=O)CN(C)C(=O)CN(C)C(=O)CN(C)C(=O)CN(C)C(=O)CN(C)C(=O)CN(C)C(=O)CN(C)C(=O)CN(C)C(=O)CC[C@H](NC(=O)CC[C@H](NC(=O)CC[C@H](NC(=O)CCCCCCCCCCCCCCCCC(=O)O)C(=O)O)C(=O)O)C(=O)O)CC1)C(=O)N[C@@H](CCCNC(=N)N)C(=O)N(C)[C@@H](C)C(=O)N[C@@H](CCCNC(=N)N)C(=O)NCC(N)=O [Compound 12, C18DA-gGlu3-Sar12-AEPipAc-Tyr-Phe-NMeLeu-Nle-Arg-NMeAla-Arg-Gly-NH2] | > 10000 | 12.9 |
| CCCC[C@H](NC(=O)[C@H](CC(C)C)N(C)C(=O)[C@H](Cc1ccccc1)NC(=O)[C@H](Cc1ccc(O)cc1)NC(=O)CN1CCN(CCNC(=O)CN(C)C(=O)CN(C)C(=O)CN(C)C(=O)CN(C)C(=O)CN(C)C(=O)CN(C)C(=O)CN(C)C(=O)CN(C)C(=O)CN(C)C(=O)CN(C)C(=O)CN(C)C(=O)CN(C)C(=O)CC[C@H](NC(=O)CC[C@H](NC(=O)CC[C@H](NC(=O)CCCCCCCCCCCCCCCCC(=O)O)C(=O)O)C(=O)O)C(=O)O)CC1)C(=O)N[C@@H](CCCN)C(=O)N(C)[C@@H](C)C(=O)N[C@@H](CCCNC(=N)N)C(=O)NCC(N)=O [Compound 20, C18DA-gGlu3-Sar12-AEPipAc-Tyr-Phe-NMeLeu-Nle-Orn-NMeAla-Arg-Gly-NH2] | > 10000 | 12.1 |
| CCCC[C@H](NC(=O)[C@H](CC(C)C)N(C)C(=O)[C@H](Cc1ccccc1)NC(=O)[C@H](Cc1ccc(O)cc1)NC(=O)CN1CCN(CCNC(=O)CN(C)C(=O)CN(C)C(=O)CN(C)C(=O)CN(C)C(=O)CN(C)C(=O)CN(C)C(=O)CN(C)C(=O)CN(C)C(=O)CN(C)C(=O)CN(C)C(=O)CN(C)C(=O)CN(C)C(=O)CN(C)C(=O)CN(C)C(=O)CN(C)C(=O)CC[C@H](NC(=O)CC[C@H](NC(=O)CC[C@H](NC(=O)CCCCCCCCCCCCCCCCC(=O)O)C(=O)O)C(=O)O)C(=O)O)CC1)C(=O)N[C@@H](CCCN)C(=O)N1CCC[C@H]1C(=O)N[C@@H](CCCNC(=N)N)C(=O)NCC(N)=O [Compound 21, C18DA-gGlu3-Sar15-AEPipAc-Tyr-Phe-NMeLeu-Nle-Orn-Pro-Arg-Gly-NH2] (HELM PEPTIDE1{[O=C(O)CCCCCCCCCCCCCCCCC(=O)[*:2]].[gGlu].[gGlu].[gGlu].[Sar].[Sar].[Sar].[Sar].[Sar].[Sar].[Sar].[Sar].[Sar].[Sar].[Sar].[Sar].[Sar].[Sar].[Sar].[O=C(CN1CCN(CCN[*:1])CC1)[*:2]].Y.F.[meL].[Nle].[Orn].P.R.G.[am]}$$$$V2.0) | > 10000 | 8.7 |
| CCCC[C@H](NC(=O)[C@H](CC(C)C)N(C)C(=O)[C@H](Cc1ccccc1)NC(=O)[C@H](Cc1ccc(O)cc1)NC(=O)CN1CCN(CCNC(=O)CN(C)C(=O)CN(C)C(=O)CN(C)C(=O)CN(C)C(=O)CN(C)C(=O)CN(C)C(=O)CN(C)C(=O)CN(C)C(=O)CN(C)C(=O)CN(C)C(=O)CN(C)C(=O)CN(C)C(=O)CN(C)C(=O)CN(C)C(=O)CN(C)C(=O)CC[C@H](NC(=O)CC[C@H](NC(=O)CC[C@H](NC(=O)CCCCCCCCCCCCCCCCC(=O)O)C(=O)O)C(=O)O)C(=O)O)CC1)C(=O)N[C@@H](CCCN)C(=O)N(C)[C@@H](C)C(=O)N[C@@H](CCCNC(=N)N)C(=O)NCC(N)=O [Compound 22, C18DA-gGlu3-Sar15-AEPipAc-Tyr-Phe-NMeLeu-Nle-Orn-NMeAla-Arg-Gly-NH2] (HELM PEPTIDE1{[O=C(O)CCCCCCCCCCCCCCCCC(=O)[*:2]].[gGlu].[gGlu].[gGlu].[Sar].[Sar].[Sar].[Sar].[Sar].[Sar].[Sar].[Sar].[Sar].[Sar].[Sar].[Sar].[Sar].[Sar].[Sar].[O=C(CN1CCN(CCN[*:1])CC1)[*:2]].Y.F.[meL].[Nle].[Orn].[meA].R.G.[am]}$$$$V2.0) | > 10000 | 10.8 |
| CCCC[C@H](NC(=O)[C@H](CC(C)C)N(C)C(=O)[C@H](Cc1ccccc1)NC(=O)[C@H](Cc1ccc(O)cc1)NC(=O)CN1CCN(CCNC(=O)CN(C)C(=O)CN(C)C(=O)CN(C)C(=O)CN(C)C(=O)CN(C)C(=O)CN(C)C(=O)CN(C)C(=O)CN(C)C(=O)CN(C)C(=O)CN(C)C(=O)CN(C)C(=O)CN(C)C(=O)CN(C)C(=O)CN(C)C(=O)CN(C)C(=O)CC[C@H](NC(=O)CC[C@H](NC(=O)CC[C@H](NC(=O)CCCCCCCCCCCCCCCCC(=O)O)C(=O)O)C(=O)O)C(=O)O)CC1)C(=O)N[C@@H](CCN)C(=O)N(C)[C@@H](C)C(=O)N[C@@H](CCCNC(=N)N)C(=O)NCC(N)=O [Compound 23, C18DA-gGlu3-Sar15-AEPipAc-Tyr-Phe-NMeLeu-Nle-Dbu-NMeAla-Arg-Gly-NH2] (HELM PEPTIDE1{[O=C(O)CCCCCCCCCCCCCCCCC(=O)[*:2]].[gGlu].[gGlu].[gGlu].[Sar].[Sar].[Sar].[Sar].[Sar].[Sar].[Sar].[Sar].[Sar].[Sar].[Sar].[Sar].[Sar].[Sar].[Sar].[O=C(CN1CCN(CCN[*:1])CC1)[*:2]].Y.F.[meL].[Nle].[Dab].[meA].R.G.[am]}$$$$V2.0) | > 10000 | 11.1 |
| CCCC[C@H](NC(=O)[C@H](CC(C)C)N(C)C(=O)[C@H](Cc1ccccc1)NC(=O)[C@H](Cc1ccc(O)cc1)NC(=O)CN1CCN(CCNC(=O)CN(C)C(=O)CN(C)C(=O)CN(C)C(=O)CN(C)C(=O)CN(C)C(=O)CN(C)C(=O)CN(C)C(=O)CN(C)C(=O)CN(C)C(=O)CC[C@H](NC(=O)CC[C@H](NC(=O)CC[C@H](NC(=O)CCCCCCCCCCCCCCCCC(=O)O)C(=O)O)C(=O)O)C(=O)O)CC1)C(=O)N[C@@H](CCN)C(=O)N1CCC[C@H]1C(=O)N[C@@H](CCCNC(=N)N)C(=O)NCC(N)=O [Compound 24, C18DA-gGlu3-Sar9-AEPipAc-Tyr-Phe-NMeLeu-Nle-Dbu-Pro-Arg-Gly-NH2] (HELM PEPTIDE1{[O=C(O)CCCCCCCCCCCCCCCCC(=O)[*:2]].[gGlu].[gGlu].[gGlu].[Sar].[Sar].[Sar].[Sar].[Sar].[Sar].[Sar].[Sar].[Sar].[O=C(CN1CCN(CCN[*:1])CC1)[*:2]].Y.F.[meL].[Nle].[Dab].P.R.G.[am]}$$$$V2.0) | > 10000 | 12.6 |
| CCCC[C@H](NC(=O)[C@H](CC(C)C)N(C)C(=O)[C@H](Cc1ccccc1)NC(=O)[C@H](Cc1ccc(O)cc1)NC(=O)CN1CCN(CCNC(=O)CN(C)C(=O)CN(C)C(=O)CN(C)C(=O)CN(C)C(=O)CN(C)C(=O)CN(C)C(=O)CN(C)C(=O)CN(C)C(=O)CN(C)C(=O)CN(C)C(=O)CN(C)C(=O)CN(C)C(=O)CC[C@H](NC(=O)CC[C@H](NC(=O)CC[C@H](NC(=O)CCCCCCCCCCCCCCCCC(=O)O)C(=O)O)C(=O)O)C(=O)O)CC1)C(=O)N[C@@H](CCCNC(=N)N)C(=O)N1CCC[C@H]1C(=O)N[C@@H](CCCNC(=N)N)C(=O)NCC(N)=O [Compound 25, C18DA-gGlu3-Sar12-AEPipAc-Tyr-Phe-NMeLeu-Nle-Arg-Pro-Arg-Gly-NH2] | > 10000 | 8.6 |
